These results are taken from patent publication US20110144331A1, “Cinnoline Compounds for the Treatment of Anxiety, Cognitive and Mood Disorders” (AstraZeneca AB, priority 2005, published 2011).

One may read the inhibition as the drop in the measured response relative to a control, in per cent. A high value points to a response far below the control.

The target in test [1] is T1, human α1β2γ2 GABAA receptor (Homo sapiens, UniProt P14867+P18507).
T1 construct: expressed in transfected cells; host or cells: Xenopus laevis oocytes injected with capped cRNA
The test is described as follows: Two-electrode voltage-clamp in Xenopus oocytes, potentiation of GABA EC10 current, GABAA1. The class given is cell-based. The note with it: percentage potentiation of GABA EC10 current divided by that of diazepam control. The procedure: (§1) GABAA receptors were heterologously expressed in Xenopus oocytes by injecting cRNA corresponding to human α1, α2, α3, α5, β2, β3 and γ2 subunits of the GABAA receptor genes. The specific subunit combinations (subtypes) were as follows: α1β2γ2, α2β3γ2, α3β3γ2, and α5β3γ2. The EC10 of GABA was approximated for each cell. Stability of GABA-mediated (EC10) current was established. Modulatory effect of test compound was determined and compared across subtypes. […] Thus, the assay can characterize modulatory effects and determine subtype selectivity of test compounds on major subtypes of GABAA receptors.
(§2) Surgically removed ovarian lobes were teased out in OR2 solution (82 NaCl, 2.5 KCl, 5 HEPES, 1.5 NaH2PO4, 1 MgCl2, 0.1 EDTA, in mM, pH 7.4). The oocytes were defolliculated by incubation in 25 mL OR2 containing 0.2% collagenase 1A (SIGMA) two times for about 60 minutes on a platform shaker and stored in Leibovitz's L-15 medium. Oocytes were injected the following day in 0.5× Leibovitz's L-15 medium containing […] gentamycin, 10 units/ml penicillin, and […] streptomycin.
(§3) Capped cRNAs from the linearized vectors containing human α1, β2 and γ2 subunits of the GABAA receptor genes were mixed in ratio of 1:1:30. Oocytes were injected with 25-50 nL of mixed RNA with an appx molar ratio for α1, β2, and γ2 as 1:1:10. Oocyte recordings were done 2-10 days after injection. The same methods apply to subtypes derived from α2β2γ2, α3β3γ2, and α5β3γ2, except for 1:1:1 ratio was used for α, β, and γ subunits.
(§4) All measurements were done in a medium containing ND-96 (96 NaCl, 2 KCl, 1.8 CaCl2.2H2O, 1 MgCl2.6H2O, 5 HEPES, in mM, pH 7.5). Two-electrode voltage-clamp recording was carried out using OpusXpress amplifier (Axon Instruments, Foster City, Calif.), which allows simultaneous recording from 8 oocytes. Oocytes were impaled with two electrodes of 1-2 MΩ tip resistance when filled with 3M KCl. Recordings were begun when membrane potential became stable at potentials negative to −50-−60 mV. Membrane potential was held at −60 mV. […] The concentration of GABA corresponded to the EC10 value calculated for each oocyte. The modulator pulses started 30 s before the GABA pulse so as to allow preincubation with the modulator. A set of 3 pulses with just GABA without modulator was given prior to the modulator-containing pulses to define the baseline GABA response. Two oocytes per each experiment were dedicated to observe the effect of diazepam on GABA response to ensure the presence of γ2 subunit in the GABAA pentameric complex, which imparts diazepam sensitivity to the complex.
(§5) Current amplitude (i) was measured from baseline to peak using Clampfit (Axon Inst., Foster City, Calif.). Potentiation was calculated as percent change from the baseline GABA current flux 100×(imod/icontrol)−1) where imod=current mediated by modulator+GABA and icontrol=current mediated by GABA alone. […] Similarly, a value of −50% potentiation means the presence of modulator caused a 50% decrease in the control current. Various other data shown here were fitted and plotted using GraphPad Prism (GraphPad Software, Inc. San Diego, Calif.). The percentage potentiation was converted to relative potentiation by dividing it with percentage potentiation value obtained from the same assay with diazepam as a control.
On the technique in general: Two-electrode voltage clamp holds a large cell at a set potential and records current.

Test [2] concerns the target T2, human α2β3γ2 GABAA receptor (Homo sapiens, UniProt P18507+P47869).
T2 construct: expressed in transfected cells; host or cells: Xenopus laevis oocytes injected with capped cRNA (α:β:γ 1:1:1)
The experiment in a line: Two-electrode voltage-clamp in Xenopus oocytes, potentiation of GABA EC10 current, GABAA2. The settings on record: percentage potentiation of GABA EC10 current divided by that of diazepam control. The class given is cell-based. The protocol:
as §1, §2, §3, §4, §5

Another test has as its target MT1 Receptor (Homo sapiens, UniProt P48039). The test is described as follows: MT1 Receptor Binding.
For test [3], the target named is human Melatonin receptor 1 (MT1) (Homo sapiens, UniProt P48039). The test is described as follows: MT1 GTPγ35S-SPA Assay (Method II). The note with it: compound used for normalization.
human Melatonin receptor 1 (MT1), sequence (P48039 whole entry): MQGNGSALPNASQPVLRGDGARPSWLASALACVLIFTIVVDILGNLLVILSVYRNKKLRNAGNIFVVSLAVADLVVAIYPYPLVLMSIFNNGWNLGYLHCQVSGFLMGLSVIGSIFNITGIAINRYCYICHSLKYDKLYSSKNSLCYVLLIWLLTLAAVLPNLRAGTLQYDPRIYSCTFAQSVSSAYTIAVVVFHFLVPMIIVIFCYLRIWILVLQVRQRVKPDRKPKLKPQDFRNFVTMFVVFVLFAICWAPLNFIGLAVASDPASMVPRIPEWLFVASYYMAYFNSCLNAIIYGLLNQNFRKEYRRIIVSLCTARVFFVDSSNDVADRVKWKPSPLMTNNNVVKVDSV
Experimental: Solid compounds were solubilized at 10 mM in DMSO; then 1:3 further diluted in DMSO in 96-well U-bottom plates using PlateMate on the assay day. 2 μl of diluted compounds were transferred to Opti-assay-plates.
The cell pellets were homogenized using Polytron; and the cell membranes were prepared fro GTPγS assay.
The cell pellets were homogenized with Polytron in ice-cold buffer: 20 mM HEPES, 3 mM MgCl2, 1 mM EGTA, pH7.4. (Freshly add protease inhibitor cocktail tables from Roche). The samples were centrifuged at 18,500 rpm for 30 mins at 4° C. in Sorvall SS-34 rotor. The membrane pellets were collected and washed with the ice-cold buffer. The samples were centrifuged at 18,500 rpm for 30 mins at 4° C. again. The membranes were resuspended in the ice-cold buffer with protease inhibitors. The protein concentration of the membrane was determined. The membranes were aliquoted and stored at −80° C.
Human MT1/HEK293 F membrane (10 μg/well) was mixed with WGA-SPA beads (300 μg/well) and GDP (10 μM) in certain volume of Lazareno assay buffer (20 mM HEPES, 100 mM NaCl, 10 mM MgCl2, pH7.4). […] The assay plates were measured in TopCount to capture the data within 4 hours. […]
Compounds were evaluated for their agonist potency (EC50) and efficacy (Emax). […] Compound's % activity was calculated according to the 100% and 0% activities defined on the same plate as the sample data. […]

T1 sequence (P14867 28-456): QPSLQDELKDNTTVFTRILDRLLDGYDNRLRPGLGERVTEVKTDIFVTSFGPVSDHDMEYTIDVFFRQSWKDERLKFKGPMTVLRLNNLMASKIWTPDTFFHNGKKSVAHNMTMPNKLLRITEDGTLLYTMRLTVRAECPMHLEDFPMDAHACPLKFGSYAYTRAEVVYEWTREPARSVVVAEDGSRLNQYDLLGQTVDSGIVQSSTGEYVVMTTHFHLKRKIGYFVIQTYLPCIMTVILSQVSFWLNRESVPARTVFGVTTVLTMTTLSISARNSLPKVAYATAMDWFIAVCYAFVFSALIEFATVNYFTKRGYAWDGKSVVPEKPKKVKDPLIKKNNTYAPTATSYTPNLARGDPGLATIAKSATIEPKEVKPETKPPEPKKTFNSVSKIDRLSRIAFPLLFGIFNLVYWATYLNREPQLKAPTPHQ
T1 sequence (P47870 25-512 partner limits assumed): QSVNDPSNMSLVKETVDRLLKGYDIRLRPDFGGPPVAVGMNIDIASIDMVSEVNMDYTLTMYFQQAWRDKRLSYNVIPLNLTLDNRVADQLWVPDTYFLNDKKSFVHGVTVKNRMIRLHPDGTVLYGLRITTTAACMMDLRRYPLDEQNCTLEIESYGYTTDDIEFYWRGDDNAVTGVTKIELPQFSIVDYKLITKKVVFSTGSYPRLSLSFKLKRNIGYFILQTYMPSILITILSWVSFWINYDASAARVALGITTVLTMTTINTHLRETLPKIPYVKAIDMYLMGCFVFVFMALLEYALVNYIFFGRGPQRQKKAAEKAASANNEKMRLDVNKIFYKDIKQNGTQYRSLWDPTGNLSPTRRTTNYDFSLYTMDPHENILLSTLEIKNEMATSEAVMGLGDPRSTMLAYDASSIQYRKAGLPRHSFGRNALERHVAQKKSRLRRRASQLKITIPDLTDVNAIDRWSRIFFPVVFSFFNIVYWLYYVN
T1 sequence (P18507 40-475): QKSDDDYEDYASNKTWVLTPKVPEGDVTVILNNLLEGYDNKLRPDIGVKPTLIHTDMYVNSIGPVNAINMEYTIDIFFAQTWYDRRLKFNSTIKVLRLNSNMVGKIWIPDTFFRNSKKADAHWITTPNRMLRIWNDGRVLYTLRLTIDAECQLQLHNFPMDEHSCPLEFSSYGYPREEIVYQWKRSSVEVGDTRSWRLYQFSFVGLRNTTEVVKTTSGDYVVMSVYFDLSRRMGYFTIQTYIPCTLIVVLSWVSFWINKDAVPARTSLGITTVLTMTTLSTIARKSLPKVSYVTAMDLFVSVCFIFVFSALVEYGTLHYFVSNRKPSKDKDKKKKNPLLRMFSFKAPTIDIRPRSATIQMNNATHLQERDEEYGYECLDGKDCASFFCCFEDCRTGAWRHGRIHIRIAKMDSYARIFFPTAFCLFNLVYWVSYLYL
T2 sequence (P47869 29-451): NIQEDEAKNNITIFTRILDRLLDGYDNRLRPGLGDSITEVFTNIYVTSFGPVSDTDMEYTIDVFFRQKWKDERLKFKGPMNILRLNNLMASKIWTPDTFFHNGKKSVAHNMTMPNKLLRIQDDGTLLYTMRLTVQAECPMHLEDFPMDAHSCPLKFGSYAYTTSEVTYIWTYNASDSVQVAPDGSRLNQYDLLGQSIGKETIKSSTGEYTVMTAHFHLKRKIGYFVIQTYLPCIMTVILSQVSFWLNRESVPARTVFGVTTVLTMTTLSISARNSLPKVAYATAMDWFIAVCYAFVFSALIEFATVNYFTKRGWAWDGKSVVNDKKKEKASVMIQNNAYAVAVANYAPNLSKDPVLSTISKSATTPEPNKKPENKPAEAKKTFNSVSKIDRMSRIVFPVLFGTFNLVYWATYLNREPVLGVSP
T2 sequence (P18507 40-475): as the sequence (P18507 40-475) above
T2 sequence (P28472 26-473 partner): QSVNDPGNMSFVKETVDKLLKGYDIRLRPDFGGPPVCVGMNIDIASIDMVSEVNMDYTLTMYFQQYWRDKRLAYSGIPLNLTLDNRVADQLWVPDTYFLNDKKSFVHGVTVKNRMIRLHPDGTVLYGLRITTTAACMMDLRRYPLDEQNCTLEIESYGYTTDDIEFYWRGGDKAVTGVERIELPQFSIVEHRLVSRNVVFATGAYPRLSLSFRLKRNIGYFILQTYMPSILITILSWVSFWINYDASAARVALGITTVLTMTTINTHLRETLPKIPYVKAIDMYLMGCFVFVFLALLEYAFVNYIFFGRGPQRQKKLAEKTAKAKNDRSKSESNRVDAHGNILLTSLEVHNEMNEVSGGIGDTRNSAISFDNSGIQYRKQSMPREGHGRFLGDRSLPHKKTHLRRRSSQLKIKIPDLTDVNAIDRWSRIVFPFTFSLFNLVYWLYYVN
MT1 Receptor, sequence (P48039 whole entry): as the sequence (P48039 whole entry) above

For `CCCNC(=O)c1nnc2c(-c3cccc(OC)c3F)c(F)ccc2c1N`, in test [1], the “Relative Potentiation for GABAA1” value came out at 0.05. Moreover, the “Relative Potentiation for GABAA2” value in test [2] was determined as 0.23.
With `CCCNC(=O)c1nnc2c(-c3cc(F)ccc3OC)c(F)ccc2c1N`, the “Relative Potentiation for GABAA1” value in test [1] was 0.085. For the same compound, the “Relative Potentiation for GABAA2” value in test [2] is 0.22.
Taken in the same sequence, the figures for `CCCNC(=O)c1nnc2c(-c3cc(F)ccc3F)cccc2c1N` were −0.078 and 0.29.
With `CCCNC(=O)c1nnc2c(-c3ccccc3)c(F)ccc2c1N`, in test [1], the “Relative Potentiation for GABAA1” value is on record as −0.093. For the same compound, the “Relative Potentiation for GABAA2” value in test [2] is 0.02.
As to `CCCNC(=O)c1nnc2c(-c3cc(Cl)ccc3OC)cccc2c1N`, the “Relative Potentiation for GABAA1” value in test [1] was 0.38. Further, the “Relative Potentiation for GABAA2” value in test [2] was 0.4.
For the compound `CCCNC(=O)c1nnc2c(-c3cccnc3F)cccc2c1N`, in test [1], the “Relative Potentiation for GABAA1” value is recorded as −0.083. Also, the “Relative Potentiation for GABAA2” value in test [2] worked out at 0.17.
Taken in the same sequence, the figures for `CCCNC(=O)c1nnc2c(-c3cccc(C#N)c3)cccc2c1N` were 0.088 and 0.31.
The corresponding values for `CCCNC(=O)c1nnc2c(-c3cc(OC)ccc3Cl)c(F)ccc2c1N` are 0.14 and 0.19.
`CCCNC(=O)c1nnc2c(-c3cc(C)ccc3C)c(F)ccc2c1N`: the “Relative Potentiation for GABAA1” value in test [1] is reported as 0.21. The “Relative Potentiation for GABAA2” value in test [2] was 0.28.
Regarding `CCCNC(=O)c1nnc2c(-c3cc(C(F)(F)F)ccc3Cl)cccc2c1N`, the “Relative Potentiation for GABAA1” value in test [1] is 0.47. In addition, the “Relative Potentiation for GABAA2” value in test [2] was 0.59.
The corresponding values for `CCCNC(=O)c1nnc2c(-c3cc(F)c(OC)cc3F)cccc2c1N` are 0.016 and 0.21.
For `CCCNC(=O)c1nnc2c(-c3ccncc3)cccc2c1N`, the “Relative Potentiation for GABAA1” value in test [1] is −0.038. In test [2], the “Relative Potentiation for GABAA2” value is 0.1.
Taken in the same sequence, the figures for `CCCNC(=O)c1nnc2c(-c3ccc(C)nc3F)cccc2c1N` were 0.053 and 0.27.
Taken in the same sequence, the figures for `CCCNC(=O)c1nnc2c(-c3cnccc3C)cccc2c1N` were 0.083 and 0.11.
As for `CCCNC(=O)c1nnc2c(-c3ccc(F)cc3F)cccc2c1N`, the “Relative Potentiation for GABAA1” value in test [1] is on record as −0.088. In addition, in test [2], the “Relative Potentiation for GABAA2” value is recorded as 0.12.
The corresponding values for `CCCNC(=O)c1nnc2c(-c3cc(OC)ccc3F)cccc2c1N` are 0.26 and 0.32.
As for `CCCNC(=O)c1nnc2c(-c3cccc(Cl)c3Cl)cccc2c1N`, the “Relative Potentiation for GABAA1” value in test [1] turned out to be 0.067. Moreover, the “Relative Potentiation for GABAA2” value in test [2] was found to be 0.053.
Taken in the same sequence, the figures for `CCCCNC(=O)c1nnc2c(-c3cnccc3OC)cccc2c1N` were 0.2 and 0.52.
Take `CCCNC(=O)c1nnc2c(-c3cccnc3OC)cccc2c1N`: the “Relative Potentiation for GABAA1” value in test [1] came out at 0.2. In test [2], the “Relative Potentiation for GABAA2” value is 0.097.
Turning to `CCCNC(=O)c1nnc2c(-c3cnccc3OC)cccc2c1N`, 1 µM produced 82% inhibition on MT1 Receptor.
In turn, `COc1ccc2[nH]c(I)c(CCNC(C)=O)c2c1` [2-Iodomelatonin] had an EC100 concentration in test [3] of 3 nM.
Regarding `CCCNC(=O)c1nnc2c(-c3ccc4ccccc4c3)cccc2c1N` [drawing 381], the “Relative Potentiation for GABAA1” value in test [1] was 0.22. Moreover, in test [2], the “Relative Potentiation for GABAA2” value came out at 0.09.
`CCCNC(=O)c1nnc2c(-c3c(Cl)cccc3OC)cccc2c1N` [drawing 410]: the “Relative Potentiation for GABAA1” value in test [1] is on record as −0.040. The “Relative Potentiation for GABAA2” value in test [2] is on record as 0.119.
Regarding `CCCNC(=O)c1nnc2c(-c3c(F)cccc3OC)cccc2c1N` [drawing 423], testing at 1 µM on MT1 Receptor gave an inhibition of 89%.
